Series [1] has as its system urgency incontinence; urinary frequency, urgency and nocturia. Kind of series: Clinical case reports of transvaginal oxybutynin. It is filed as in vivo, human. To be noted: person. As for the experimental part: A person developed urgency incontinence two years after their laparoscopically assisted transvaginal hysterectomy. […] Two weeks later, they started applying oxybutynin (5 mg) into the vagina at bed time, instead of Ditropan XL. […] The patient used transvaginal oxybutynin (5 mg) at bed time for 6 months.
A person with a history of chronic pelvic pain and multiple surgical procedures, including pain mapping under conscious sedation and repair of occult bilateral inguinal hernias, developed urinary frequency, urgency and nocturia. Their urine analysis and urine culture were negative for signs of urinary tract infection. Their treatment began with transvaginal oxybutynin (5 mg) once daily, at bed time, applied into the vagina.

Series [2] has as its system persistent urge incontinence. To be noted: intravesical administration; eleven patients; cited from earlier work.
Setting [3] is: 5 mg into the vagina at bed time.
Setting [4] is: 5 mg into the vagina twice daily.
Where [5] appears, read: transvaginal 5 mg at bed time for 6 months.

Where a name gives a salt, the structure may show the parent alone.

In the case of `Cc1ccc(O)c([C@H](CCN(C(C)C)C(C)C)c2ccccc2)c1` [DETROL, tolterodine tartrate], the “improvement of urgency incontinence” value in series [1] (2 mg orally twice a day) is “slight improvement”.
For the molecule `CCN(CC)CC#CCOC(=O)C(O)(c1ccccc1)C1CCCCC1` (stereo not shown) [oxybutynin chloride], in series [2], the “patients reporting improvement and becoming totally continent” value is reported as “Ten out of eleven”; the side effects result is “no side effects were observed”.
As to `CCN(CC)CC#CCOC(=O)C(O)(c1ccccc1)C1CCCCC1` (stereo not shown) [oxybutynin], in series [1] (setting [3]), the side effects entry is “did not experience any noticeable side effects” and the urgency symptoms result is reported as “improved remarkably”. Further, in series [1] (setting [4]), the improvement of symptoms result is recorded as “remarkable improvement” and the side effects result was “no significant side effects”. In series [1] (setting [5]), the “control of symptoms of urgency incontinence throughout the treatment period” value is “remained effective” and the “side effects throughout the treatment period” value is listed as “did not suffer from any side effects”. In addition, the “improvement of urinary frequency, urgency and nocturia” value in series [1] (transvaginal 5 mg once daily at bed time) was “significant improvement”.

Values taken from US20110003000A1, “Transvaginal Delivery of Drugs” (FemmePharma Holding Company, Inc., priority 2009, published 2011).
